Values of other authors as cited in US20050266081A1, “Antimicrobial silver hydrogels” (priority 2004, published 2005).

Tested on: skin cell respiration
Conditions: application of 1 to 10 mg/ml of silver; probable factor in the interference of wound healing

Substance: silver
- inhibition of skin cell respiration: 30%
